{"source": "patent EP1039902B1", "about": "“INHIBITORS OF GAP JUNCTION COMMUNICATION” (THE SCRIPPS RESEARCH INSTITUTE, priority 1997, dated 1999)", "key": {"[1]": {"test_system": "rat glial cell gap junction", "assay": "Gap junction dye coupling assay (Lucifer yellow dye transfer; microinjection or scrape loading)", "assay_type": "cell-based", "settings": "for potency of gap junction inhibition relative to oleamide: comparison in words; for reversibility of gap junction inhibition: removal of media containing the agent, replacement with fresh media", "description": "(§1) Rat glial cells (Suter et al., 1987) obtained from Dr. Trosko's laboratory were cultured in standard plastic tissue cultureware in Richter's Improved Minimal Essential Medium (Irvine Scientific, Santa Ana, CA), supplemented with 10% fetal calf serum and 50 µg/ml gentamicin sulfate, and incubated in a humidified atmosphere of 95% air/5% CO2 at 37°C. The cells were passaged by trypsinization and used at passages 4-8. BHK (baby hamster kidney) cells that were stably transfected with a β1 connexin cDNA (Kumar et al., 1995) were cultured in DMEM medium supplemented with 5% fetal calf serum and 50 µg/ml gentamicin sulfate, and incubated in a humidified atmosphere of 95% air/5% CO2 at 37° C. In order to induce β1 connexin expression in the BHK cells, 100 µM zinc acetate was added to culture medium for 8-18 hours when the cell culture was about 90% confluent.\n(§2) Gap junctional communication in glial cell and BHK/β1 cell cultures was assayed by microinjection of 5% Lucifer yellow CH dye in 0.1 M LiCl solution, and quantitated by determining the number of directly adjacent, neighboring cells that received dye (dye-coupling). Micropipettes were loaded with the dye solution by backfilling. Cells were visualized using a Nikon Diaphot inverted phase contrast/ epifluorescent microscope, and impaled with dye-filled micropipettes using an Eppendorf microinjector (model 5246). Five minutes after dye-injection, the transfer of dye to directly adjacent cells was determined using epifluorescent illumination. For each treatment condition, ten cells were microinjected in each of three dishes, the total number of dye-coupled neighboring cells was calculated and compared to determine the % dye-coupling. For scrape loading measurements, Lucifer yellow CH (0.05% dye in PBS) was loaded intracellularly by cutting or scraping cells in the monolayer with a sharp knife. The dye solution was left in the dish for 90 seconds, then the solution was discarded, and the dish subsequently washed with PBS. The cells were examined for dye transfer with an inverted epifluorescence microscope, and the degree of communication was assessed by determining the extent of Lucifer yellow transfer into contiguous cells."}, "[2]": {"test_system": "Chinese hamster V79 cells", "settings": "cited from earlier work"}, "[3]": {"molecular_target": "T1, fatty acid amide hydrolase (Rattus norvegicus, UniProt P97612)", "T1 sequence (P97612 1-579)": "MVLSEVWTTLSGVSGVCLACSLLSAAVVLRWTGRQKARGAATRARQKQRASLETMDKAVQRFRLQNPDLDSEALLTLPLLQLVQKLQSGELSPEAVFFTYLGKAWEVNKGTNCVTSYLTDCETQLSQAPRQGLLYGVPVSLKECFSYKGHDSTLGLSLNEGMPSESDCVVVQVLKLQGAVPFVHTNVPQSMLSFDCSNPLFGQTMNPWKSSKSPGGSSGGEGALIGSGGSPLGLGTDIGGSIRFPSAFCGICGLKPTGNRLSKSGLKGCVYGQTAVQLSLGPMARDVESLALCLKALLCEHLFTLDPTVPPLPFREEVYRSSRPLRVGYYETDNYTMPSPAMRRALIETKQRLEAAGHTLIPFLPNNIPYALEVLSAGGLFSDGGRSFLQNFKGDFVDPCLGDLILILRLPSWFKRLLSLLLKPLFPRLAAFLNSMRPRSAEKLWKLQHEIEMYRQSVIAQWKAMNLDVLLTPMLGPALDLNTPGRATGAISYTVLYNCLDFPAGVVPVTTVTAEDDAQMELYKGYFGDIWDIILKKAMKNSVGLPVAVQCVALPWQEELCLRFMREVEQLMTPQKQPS", "assay": "Inhibition of fatty acid amide hydrolase", "assay_type": "biochemical"}, "BHK/β1 cells": {"test_system": "BHK/β1 cells", "assay": "Gap junction dye transfer between β1 connexin-transfected BHK cells", "assay_type": "cell-based, baby hamster", "description": "as §1, §2"}, "α1 connexin": {"test_system": "α1 connexin", "assay": "Immunoblotting of α1 connexin phosphorylation isoforms", "assay_type": "cell-based, rat", "settings": "50 µM, 4 hours", "description": "Plasma membrane fractions containing gap junctions were obtained after hypotonic alkali extraction of the glial cells. The extracted protein was dissolved in 2% SDS and the total protein was determined using the Bio-Rad DC Protein Assay kit (Bio-Rad Corp.). 10 µg of protein was electrophoresed by 10% SDS-PAGE, and subsequently blotted electrophoretically on to Immobilon-P membranes (Millipore Corp.). Gap junction protein was detected using anti-α1 connexin polyclonal rabbit antibodies, and the HRP/Chemiluminescence detection kit (Amersham Corp.) following the manufacturer's instructions."}, "rat cardiac myocytes": {"test_system": "rat cardiac myocytes", "settings": "cited from earlier work"}, "astrocyte": {"test_system": "astrocyte", "settings": "cited from earlier work"}, "astrocyte calcium waves": {"test_system": "astrocyte calcium waves", "settings": "mechanical stimulation or local glutamate application; cited from earlier work"}, "rat glial cells [4]": {"test_system": "rat glial cells", "assay": "Gap junction electrical coupling assay (double whole cell patch recording)", "assay_type": "cell-based", "settings": "concentration not given", "description": "Junctional conductance was measured using double whole cell patch recording performed on pairs of rat glial cells as described (Miller et al., (1992) J Mem. Biol. 128, 91-102) with a pipette solution of (in […]): Kaspartate 160, EGTA 10, CaCl2 2, HEPES 10 (pH 7.2), ATP 4. The external solution contained (in mM): NaCl 160, KCl 4.5, CaCl2 2, MgCl2 1, HEPES 10, pH 7.4. Both cells were held at -40 mV and pulses to -20 mV were alternately applied to each cell. Holding currents were subtracted in the records shown. Cells that were examined were generally in contact with other cells. The electrical conductance was calculated as the junctional current divided by 20 mV. All dye-coupling and conductance studies were performed at room temperature."}, "rat glial cells [5]": {"test_system": "rat glial cells", "assay": "Calcium wave propagation (Fluo-3, mechanical stimulation)", "assay_type": "cell-based", "settings": "concentration not given", "description": "Rat glial cells were loaded with 5 µM Fluo-3/AM (Calbiochem) in Hank's balanced salt solution containing 25 mM HEPES buffer (HBSS/HEPES) for 1 hour, at which point the loading buffer was exchanged for new HBSS/HEPES buffer. The cell cultures were then left at room temperature for at least 30 minutes. Mechanical stimulation of a single cell was performed as follows: a glass micropipette (tip diameter of approximately 0.5 µm) was micro-manipulated downward on to a single cell causing a transient deformation of the cell membrane. The calcium image was then examined with an inverted fluorescence microscope, and photographed with a digital fluorescence microscope (excitation = 506 nm, emmision = 526 nm). The degree of calcium wave propagation was quantitated by counting at different time points the number of transmitting cells in one linear direction away from the stimulated cell. Junctional dye transfer rates were simultaneously examined by microinjection of Lucifer yellow CH in the same dishes; the methods for dye transfer assay was described in assay procedures, gap junction dye coupling assays. For calcium wave and dye transfer studies, the drug was preincubated with the glial cells for 10 minutes, and the drug was left in the experimental solution throughout the examination. All measurements were performed at room temperature."}, "striatal astrocytes": {"test_system": "striatal astrocytes", "settings": "cited from earlier work"}, "[6]": {"assay": "Induction of physiological sleep", "assay_type": "in vivo", "settings": "rats"}, "[7]": {"test_system": "rat liver epithelial cells", "settings": "cited from earlier work"}, "[8]": {"settings": "result in words, concentration not stated at the place"}}, "note": "“Also recorded” adds a separate entry of the source. Like-named read-outs stand apart in the source and are kept apart here.", "data": [{"smiles": "CCCCCCCC/C=C\\CCCCCCCC(=O)OCC(CO)OC(C)=O", "note": "(racemic) [1-oleoyl-2-acetylglycerol, reference compound]", "values": [{"measurement": "inhibition of gap junction-mediated dye transfer", "setting": "[1]; [8]", "value": "not inhibitors"}, {"measurement": "gap junction inhibition", "setting": "[2]", "value": "gap junction inhibition"}]}, {"smiles": "CCCCCCCC/C=C\\CCCCCCCC(=O)C(F)(F)F", "note": "[CF3]", "values": [{"measurement": "potency of gap junction inhibition relative to oleamide", "setting": "[1]", "value": "significantly more potent than oleamide"}, {"measurement": "reversibility of gap junction inhibition", "setting": "[1]", "value": "reversible effect"}, {"measurement": "Ki", "setting": "[3]", "value": 1, "unit": "nM"}]}, {"smiles": "CCCCCCCC/C=C\\CCCCCCCC(=O)O", "note": "[Oleic acid, reference compound]", "values": [{"measurement": "inhibition of gap junction-mediated dye transfer", "setting": "[1]; [8]", "value": "inactive; also recorded: no effect"}, {"measurement": "inhibition of gap junction-mediated dye transfer", "setting": "[1]; result in words, concentration not stated at the place, listed as oleic acid", "value": "no effect"}, {"measurement": "effect on dye transfer", "setting": "BHK/β1 cells; 50 µM, 4 hours of treatment", "value": "no effect"}, {"measurement": "effect on dye transfer", "setting": "BHK/β1 cells; concentration not given", "value": "no effect"}, {"measurement": "α1 connexin phosphorylation profile (P2 isoform)", "setting": "α1 connexin", "value": "No change"}, {"measurement": "gap junction inhibition", "setting": "rat cardiac myocytes", "value": "inhibit the gap junction"}, {"measurement": "gap junction inhibition", "setting": "rat cardiac myocytes; listed as oleic acid", "value": "inhibit gap junction communication"}]}, {"smiles": "CCCCC/C=C\\C/C=C\\C/C=C\\C/C=C\\CCCC(=O)NCCO", "note": "[anandamide, reference compound]", "values": [{"measurement": "inhibition of gap junction-mediated dye transfer", "setting": "[1]; 50 µM", "value": "effective inhibitors"}, {"measurement": "potency of gap junction inhibition relative to oleamide", "setting": "[1]", "value": "blocked dye transfer at doses comparable to oleamide"}, {"measurement": "inhibition of gap junction-mediated dye transfer", "setting": "[1]; [8]", "value": "selectively inhibiting gap junction communication"}, {"measurement": "gap junction-mediated dye transfer", "setting": "astrocyte", "value": "inhibit gap junction-mediated dye transfer"}, {"measurement": "propagation of astrocyte calcium waves", "setting": "astrocyte calcium waves", "value": "block the propagation of astrocyte calcium waves"}, {"measurement": "electrical coupling", "setting": "rat glial cells [4]", "value": "selectively inhibiting gap junction communication"}, {"measurement": "calcium wave transmission", "setting": "rat glial cells [5]", "value": "without affecting calcium wave transmission"}, {"measurement": "effect on dye transfer", "setting": "BHK/β1 cells; concentration not given", "value": "inhibitory effects"}]}, {"smiles": "CCCCC/C=C\\C/C=C\\C/C=C\\C/C=C\\CCCC(=O)O", "note": "[arachidonic acid]", "values": [{"measurement": "gap junction inhibition", "setting": "striatal astrocytes", "value": "inhibit the gap junction"}]}, {"smiles": "CCCCCCCC/C=C\\CCCCCCCCCCCC(N)=O", "note": "[erucamide, Erucamide]", "values": [{"measurement": "inhibition of gap junction-mediated dye transfer", "setting": "[1]; [8]", "value": "not an inhibitor"}, {"measurement": "induction of physiological sleep", "setting": "[6]", "value": "does not induce physiological sleep"}]}, {"smiles": "CCCCCCCC/C=C\\CCCCCCCC=O", "note": "[oleyl aldehyde]", "values": [{"measurement": "potency of gap junction inhibition relative to oleamide", "setting": "[1]", "value": "nearly equipotent with oleamide"}, {"measurement": "reversibility of gap junction inhibition", "setting": "[1]", "value": "reversible effect"}, {"measurement": "inhibition of gap junction-mediated dye transfer", "setting": "[1]; [8]", "value": "surprisingly effective"}, {"measurement": "Ki", "setting": "[3]", "value": 190, "unit": "nM"}]}, {"smiles": "CCCCCCCC/C=C\\CCCCCCCC(=O)NCCO", "note": "[oleyl ethanolamide]", "values": [{"measurement": "inhibition of gap junction-mediated dye transfer", "setting": "[1]; 50 µM", "value": "effective inhibitors"}, {"measurement": "inhibition of gap junction-mediated dye transfer", "setting": "[1]; 50 µM, listed as Oleyl ethanolamide", "value": "significant inhibitors"}, {"measurement": "potency of gap junction inhibition relative to oleamide", "setting": "[1]", "value": "less potent than oleamide"}, {"measurement": "potency of gap junction inhibition relative to oleamide", "setting": "[1]; listed as Oleyl ethanolamide", "value": "less potent than oleamide at lower doses"}, {"measurement": "gap junction-mediated dye transfer", "setting": "astrocyte", "value": "inhibit gap junction-mediated dye transfer"}, {"measurement": "propagation of astrocyte calcium waves", "setting": "astrocyte calcium waves", "value": "block the propagation of astrocyte calcium waves"}]}, {"smiles": "CC/C=C\\C/C=C\\C/C=C\\CCCCCCCC(=O)O", "note": "[α-linolenic acid]", "values": [{"measurement": "gap junction inhibition", "setting": "[7]", "value": "inhibit the gap junction"}]}]}
